Measurements reported in ChEMBL document CHEMBL3137667, “[Drug-induced liver injury; fourteenth updated edition of the bibliographic database of liver injuries and related drugs]” (Gastroenterol Clin Biol, 2004).

Experiments:
[1] = Highest frequency of moderate liver toxicity observed during clinical trials, expressed as a percentage. [column '% BIOL' in source]; conditions: human
[2] = Highest frequency of acute liver toxicity observed during clinical trials, expressed as a percentage. [column '% AIGUE' in source]; conditions: human
[3] = human, serum
[4] = human, serum; remark: listed apart in the source
[5] = human
[6] = human; remark: listed apart in the source
[7] = human; remark: listed apart in the source
[8] = human, serum, 4383 h
[9] = human; remark: listed apart in the source
[10] = human; remark: listed apart in the source
[11] = human; remark: listed apart in the source
[12] = human; remark: listed apart in the source
[13] = human; remark: listed apart in the source
[14] = human; remark: listed apart in the source
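Wherever Hepatotoxicity (association with vascular disease) is given: count of indexed literature references reporting vascular liver injury in humans, e.g. peliosis hepatitis, hepatic veno-occlusive disease or Budd-Chiari syndrome.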
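Wherever Hepatotoxicity (benign tumour) is given: value is a count of indexed literature references citing a benign tumour confirmed by histopathology.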
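Wherever Hepatotoxicity (choleostasis) is given: human cholestatic liver injury, shown by histopathology or by peak ALT or AST elevation over alkaline phosphatase ratio below 2, value counts indexed literature reports.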
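Wherever Hepatotoxicity (chronic liver disease) is given: chronic liver injury confirmed by histopathology or persistently raised serum aminotransferase activity beyond 6 months, value given as the count of indexed literature references.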
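Wherever Hepatotoxicity (cirrhosis) is given: value is a count of indexed literature references reporting cirrhosis confirmed by histopathology.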
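Wherever Hepatotoxicity (cytolytic) is given: human cytolytic liver injury, shown by histopathology or by a ratio above 5 of peak ALT or AST elevation to alkaline phosphatase elevation, value counts indexed references.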
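Wherever Hepatotoxicity (granulomatous hepatitis) is given: value is a count of indexed literature references reporting granulomatous liver disease confirmed by histopathology.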
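Wherever Hepatotoxicity (malignant tumour) is given: malignant tumour confirmed by histopathology, value gives the count of indexed literature references reporting it.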
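Wherever Hepatotoxicity (severe hepatitis) is given: human clinical data: severe hepatitis, meaning potentially life-threatening liver failure or clinically observed cases, the value counts how many indexed literature references report it.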
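Wherever Hepatotoxicity (steatosis) is given: steatosis confirmed by histopathology, value is the count of indexed references.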

CC(C)=CCC/C(C)=C/CC/C(C)=C/CCC(=O)OC/C=C(\C)CCC=C(C)C [GEFARNATE]
0: Hepatotoxicity (acute) [4] | Hepatotoxicity (cytolytic) [5] | Hepatotoxicity (choleostasis) [6] | Hepatotoxicity (severe hepatitis) [7] | Hepatotoxicity (chronic liver disease) [8] | Hepatotoxicity (cirrhosis) [9] | Hepatotoxicity (granulomatous hepatitis) [10] | Hepatotoxicity (association with vascular disease) [11] | Hepatotoxicity (steatosis) [12] | Hepatotoxicity (malignant tumour) [13] | Hepatotoxicity (benign tumour) [14]
1: Hepatotoxicity (moderate) [3]
1%: Hepatotoxicity (moderate) [1]
0%: Hepatotoxicity (acute) [2]

TINZAPARIN SODIUM
3: Hepatotoxicity (moderate) [3]
35%: Hepatotoxicity (moderate) [1]
0%: Hepatotoxicity (acute) [2]
0: Hepatotoxicity (acute) [4] | Hepatotoxicity (cytolytic) [5] | Hepatotoxicity (choleostasis) [6] | Hepatotoxicity (severe hepatitis) [7] | Hepatotoxicity (chronic liver disease) [8] | Hepatotoxicity (cirrhosis) [9] | Hepatotoxicity (granulomatous hepatitis) [10] | Hepatotoxicity (association with vascular disease) [11] | Hepatotoxicity (steatosis) [12] | Hepatotoxicity (malignant tumour) [13] | Hepatotoxicity (benign tumour) [14]

NS(=O)(=O)Cc1noc2ccccc12 [ZONISAMIDE]
0%: Hepatotoxicity (acute) [2]
2: Hepatotoxicity (moderate) [3]
0: Hepatotoxicity (acute) [4] | Hepatotoxicity (cytolytic) [5] | Hepatotoxicity (choleostasis) [6] | Hepatotoxicity (severe hepatitis) [7] | Hepatotoxicity (chronic liver disease) [8] | Hepatotoxicity (cirrhosis) [9] | Hepatotoxicity (granulomatous hepatitis) [10] | Hepatotoxicity (association with vascular disease) [11] | Hepatotoxicity (steatosis) [12] | Hepatotoxicity (malignant tumour) [13] | Hepatotoxicity (benign tumour) [14]
4.2%: Hepatotoxicity (moderate) [1]

CC(/C=C1\SC(=S)N(CC(=O)O)C1=O)=C\c1ccccc1
0%: Hepatotoxicity (acute) [2]
2: Hepatotoxicity (moderate) [3]
0: Hepatotoxicity (choleostasis) [6] | Hepatotoxicity (chronic liver disease) [8] | Hepatotoxicity (cirrhosis) [9] | Hepatotoxicity (granulomatous hepatitis) [10] | Hepatotoxicity (association with vascular disease) [11] | Hepatotoxicity (steatosis) [12] | Hepatotoxicity (malignant tumour) [13] | Hepatotoxicity (benign tumour) [14]
1: Hepatotoxicity (acute) [4] | Hepatotoxicity (cytolytic) [5] | Hepatotoxicity (severe hepatitis) [7]
1%: Hepatotoxicity (moderate) [1]

C[C@H](C(=O)O)c1ccc2oc(-c3ccc(F)cc3)nc2c1 [FLUNOXAPROFEN]
2: Hepatotoxicity (moderate) [3]
0%: Hepatotoxicity (moderate) [1] | Hepatotoxicity (acute) [2]
0: Hepatotoxicity (acute) [4] | Hepatotoxicity (cytolytic) [5] | Hepatotoxicity (choleostasis) [6] | Hepatotoxicity (severe hepatitis) [7] | Hepatotoxicity (chronic liver disease) [8] | Hepatotoxicity (cirrhosis) [9] | Hepatotoxicity (granulomatous hepatitis) [10] | Hepatotoxicity (association with vascular disease) [11] | Hepatotoxicity (steatosis) [12] | Hepatotoxicity (malignant tumour) [13] | Hepatotoxicity (benign tumour) [14]
